Measured values reported in patent publication US10517854B2, “Dosing regiments of celgosivir for the treatment of dengue” (60 Degrees Pharmaceuticals, LLC, priority 2013, dated 2019).

Legend:
[1] = cited from earlier work
[2] = tested on: DENV4; assay: Cell-based flaviviral immunodetection assay (CFI), DENV4; settings: Dengue virus, BHK-21; DENV4, BHK21 cells, 48 hours
[3] = humans, cited from earlier work
[4] = tested on: EDEM, XBP1, CHOP; assay: Host gene products during drug-induced unfolded protein response; format: cell-based; settings: data not shown
Excerpt: The pro-survival products enhance the clearance of misfolded proteins by directing them to the proteosome for degradation.

[5] = tested on: DENV2 in THP-1 human monocytes; assay: ADE infection of human monocytes (THP-1), plaque assay; format: cell-based; settings: Dengue virus, THP-1, DENV2 + 4G2 antibody, 48 hours, read-out: EC50, suppression of viral replication under ADE condition
Protocol: The activity of celgosivir in infected human monocytes, one of the primary circulating cell types infected by dengue virus, was examined, THP-1 cells were grown in RPMI-1640 maintenance medium containing 10% fetal calf serum and 1% Penicillin-streptomycin and cultured in 37° C. incubator supplemented with 5% CO2. For ADE infection in THP-1 cells, virus (DENV2, MOI-10) was mixed with sub-neutralizing concentration of humanized 4G2 monoclonal antibody (0.05 μg/0.5 ml) and allowed to incubate on ice for 1 hr in the serum free medium, to allow immune complex formations. The immune complex was then added on to THP-1 (1×10^5) cells per well in a 24 well plate and further incubated for 2 hours at 37° C. incubator. An excess unbound immune complex was then removed by spinning cells at 1000 rpm for 5 min and then cells were supplemented with complete growth maintenance medium. For drug testing in the ADE condition, cells were mock (untreated) or celgosivir-treated for 48 hours, and finally media supernatant was collected for plaque assay analysis.

[6] = tested on: DENV1-4; assay: Inhibition of replication across dengue serotypes (CFI); format: cell-based; settings: Dengue virus, DENV1 / DENV2, read-out: EC50 values for the other three serotypes

In the case of CCCC(=O)O[C@H]1CN2CC[C@H](O)[C@@H]2[C@@H](O)[C@@H]1O.Cl [Celgosivir, celgosivir], the “Cmax and AUC versus dose” value ([1]; humans) is given as “increase in proportion to dose”, the oral clearance ([1]; humans) is given as 12 L/h and the terminal half-life ([1]; humans) is given as 18 h. For the same compound, the conversion in humans ([1]; only castanospermine detected in plasma) was “rapidly convert to castanospermine”, the EC50 [2] was 310 ± 120 nM and the “maximum tolerated dose (MTD)” value ([3]; HIV drug trials, for 184 days) was 400 mg per day. For the same compound, the adverse events [3] was “largely gastrointestinal, namely flatulence and diarrhea, of mild to moderate intensity”, the serious adverse events [3] was “No serious adverse events have been reported” and the serum creatine kinase [3] was “Asymptomatic elevations”. For the same compound, the “time to reversal of creatine kinase elevations after discontinuation” value [3] was at most 2 weeks, the “apoptotic markers such as CHOP” value [4] was “down-regulated” and the “pro-survival host gene products such as EDEM and XBP1” value [4] was “upregulation”. The EC50 [5] was 500 nM and the EC50 [6] was 310 to 650 nM.
